Measured values: US5047397A, “Linear analogs of atrial natriuretic peptides” (California Biotechnology Inc., priority 1988, dated 1991)
*1 amine or outer side, *2 acyl side, *3 side chain or, on linkers, in order; H or OH if unused. Where a SMILES comes first, the peptide text is derived from it. Bridges are numbered along the chain shown (N, C = ends). [ ]: non-standard residue; d: D form. The star is where a group is joined. X2 = N=C(N)NCCC[C@@H](C(=O)[*:2])N(CCc1ccc(N[*:3])cc1)[*:1]; Butyryl(4-indol-3-yl) = O=C(CCCc1c[nH]c2ccccc12)*; Acetyl(2-naphthyloxy) = O=C(COc1ccc2ccccc2c1)*; Dibenzylacetyl = O=C(C(Cc1ccccc1)Cc1ccccc1)*; Acetyl(2-naphthyl) = O=C(Cc1ccc2ccccc2c1)*; X4 = O=C(Cc1ccc(NCCc2ccc3ccccc3c2)cc1)*; 2Naphthoyl = O=C(c1ccc2ccccc2c1)*; NMeI = CC[C@H](C)[C@H](NC)C(=O)O; X1 = O=C(Cc1ccc(N[*:1])cc1)[*:2]; Phg = N[C@H](C(=O)O)c1ccccc1; 4Amb = NCc1ccc(C(=O)O)cc1; 4Abz = Nc1ccc(C(=O)O)cc1; Aib = CC(C)(N)C(=O)O; X3 = CCC(C)CN*

Biological target: T1, specific ANP receptor sites on BASM or BAE cells (Bos taurus, UniProt P10730)
T1 construct: specific receptor sites on BASM or BAE cells; endogenous in cells; host or cells: cultured BASM and BAE cells
T1 sequence (P10730 42-537): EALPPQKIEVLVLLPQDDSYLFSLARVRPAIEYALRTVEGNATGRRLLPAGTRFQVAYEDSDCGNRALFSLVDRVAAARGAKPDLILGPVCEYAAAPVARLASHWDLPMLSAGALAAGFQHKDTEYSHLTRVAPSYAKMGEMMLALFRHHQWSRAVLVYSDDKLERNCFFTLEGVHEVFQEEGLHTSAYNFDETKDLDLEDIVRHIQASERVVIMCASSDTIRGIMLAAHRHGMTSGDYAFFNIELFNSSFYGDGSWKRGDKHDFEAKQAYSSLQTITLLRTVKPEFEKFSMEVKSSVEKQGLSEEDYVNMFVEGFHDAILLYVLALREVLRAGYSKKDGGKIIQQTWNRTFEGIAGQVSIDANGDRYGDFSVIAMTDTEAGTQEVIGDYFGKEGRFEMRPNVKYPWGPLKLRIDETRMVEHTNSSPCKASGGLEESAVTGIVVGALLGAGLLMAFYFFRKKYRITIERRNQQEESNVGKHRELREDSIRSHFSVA
Assay: Competitive displacement receptor binding of (125I)-rANP(126-150) on cultured cells
Set-up: species or system bovine
Conditions: for Ki(app): concentration of unlabeled peptide displacing 50% of maximal binding of 0.5 nM (125I)-rANP(126-150), BASM or BAE cells
Text: Analogous "competitive displacement" receptor binding assays are considered commonplace in the art for examining specific ligand-receptor interactions.
Assuming these ANP analogs act at one or more ANP receptor sites, then increased receptor affinity should reflect increased biological potency.

CC[C@H](C)[C@H](NC(=O)[C@H](CCCNC(=N)N)NC(=O)[C@H](CC(=O)O)NC(=O)[C@@H](NC(=O)[C@H](CCCNC(=N)N)NC(=O)c1ccc(CNC(=O)c2ccc3ccccc3c2)cc1)[C@@H](C)CC)C(N)=O [AP795] ({2Naphthoyl-4Amb}-RIDRI-NH2)
Ki(app): 11.9 nM

CC[C@H](C)[C@H](NC(=O)[C@H](CCCNC(=N)N)NC(=O)[C@H](CC(=O)O)NC(=O)[C@@H](NC(=O)[C@H](CCCNC(=N)N)NC(=O)C(C)(C)NC(=O)CNC(=O)Cc1ccc2ccccc2c1)[C@@H](C)CC)C(N)=O [AP321, (2-NA)--G--(Aib)--R--I--D--R--I--NH2] ({Acetyl(2-naphthyl)}-G[Aib]RIDRI-NH2)
Ki(app): 33.0 nM

CC[C@H](C)[C@H](NC(=O)[C@H](CCCNC(=N)N)NC(=O)[C@H](CC(=O)O)NC(=O)[C@@H](NC(=O)[C@H](CCCNC(=N)N)NC(=O)CNC(=O)CNC(=O)C(Cc1ccccc1)Cc1ccccc1)[C@@H](C)CC)C(=O)NCC(=O)N[C@@H](C)C(N)=O [AP534, (DBA)--G--G--R-- I--D--R--I--G--A--NH2)] (Dibenzylacetyl-GGRIDRIGA-NH2)
Ki(app): 8.81 nM

CC[C@H](C)[C@H](NC(=O)[C@H](CCCNC(=N)N)NC(=O)CNC(=O)CNC(=O)Cc1ccc2ccccc2c1)C(=O)N[C@@H](CC(=O)O)C(=O)N[C@@H](CCCNC(=N)N)C(=O)N[C@H](C(N)=O)c1ccccc1 [AP595, (2-NA)--G--G-- R--I--D--R--Phg--NH2] ({Acetyl(2-naphthyl)}-GGRIDR[Phg]-NH2)
Ki(app): 100.0 nM

CC[C@H](C)[C@H](NC(=O)[C@H](CCCNC(=N)N)NC(=O)[C@H](CC(=O)O)NC(=O)[C@@H](NC(=O)[C@H](CCCNC(=N)N)NC(=O)c1ccc(NC(=O)Cc2ccc3ccccc3c2)cc1)[C@@H](C)CC)C(N)=O [AP560] ({Acetyl(2-naphthyl)-4Abz}-RIDRI-NH2)
Ki(app): 68.8 nM

CC[C@H](C)[C@H](NC(=O)[C@H](CCCNC(=N)N)NC(=O)[C@H](CC(=O)O)NC[C@@H](NC(=O)[C@H](CCCNC(=N)N)NC(=O)Cc1ccc(NC(=O)Cc2ccc3ccccc3c2)cc1)[C@@H](C)CC)C(N)=O [AP701]
Ki(app): 60.3 nM

CC[C@H](C)[C@H](NC(=O)[C@H](CCCNC(=N)N)NC(=O)[C@H](CC(=O)O)NC(=O)[C@@H](NC(=O)[C@H](CCCNC(=N)N)NC(=O)CNC(=O)CCCc1c[nH]c2ccccc12)[C@@H](C)CC)C(=O)NCC(=O)N[C@@H](C)C(N)=O [AP531, (3-IB)--G--R--I--D--R--I--G--A--NH2)] ({Butyryl(4-indol-3-yl)}-GRIDRIGA-NH2)
Ki(app): 9.34 nM

CCNC(=O)[C@H]([C@@H](C)CC)N(C)C(=O)[C@H](CCCNC(=N)N)NC(=O)[C@H](CC(=O)O)NC(=O)[C@@H](NC(=O)[C@H](CCCNC(=N)N)NC(=O)CNC(=O)CNC(=O)Cc1ccc2ccccc2c1)[C@@H](C)CC [AP596, (2-NA)--G--G--R--I--D--R--NMeIle--NH(ethyl)] ({Acetyl(2-naphthyl)}-GGRIDR[NMeI]-NHEt)
Ki(app): 87.3 nM

CC[C@H](C)[C@H](NC(=O)[C@H](CCCNC(=N)N)NC(=O)[C@H](CC(=O)O)NC(=O)[C@@H](NC(=O)[C@H](CCCCNC(C)=O)NC(=O)Cc1ccc(NC(=O)COc2ccc3ccccc3c2)cc1)[C@@H](C)CC)C(N)=O [AP801] ({Acetyl(2-naphthyloxy)}-[X1]K(Ac)IDRI-NH2)
Ki(app): 3.95 nM

CC[C@H](C)[C@H](NC(=O)[C@H](CCCNC(=N)N)NC(=O)[C@H](CC(=O)O)NC(=O)[C@@H](NC(=O)[C@H](CCCNC(=N)N)NCCc1ccc(NC(=O)COc2ccc3ccccc3c2)cc1)[C@@H](C)CC)C(N)=O [AP816] (H-[X2](Acetyl(2-naphthyloxy))IDRI-NH2)
Ki(app): 17.4 nM

CC[C@H](C)[C@H](NC(=O)[C@H](CCCNC(=N)N)NC(=O)[C@H](CC(=O)O)NC(=O)[C@H](Cc1ccccc1)NC(=O)[C@H](CCCNC(=N)N)NC(=O)CNC(=O)CNC(=O)Cc1ccc2ccccc2c1)C(N)=O [AP521, (2-NA)--G--G--R--F--D--R--I--NH2] ({Acetyl(2-naphthyl)}-GGRFDRI-NH2)
receptor binding / activity as judged by Ki, in words: very low, if any, activity
Ki(app): 400 nM

CC[C@H](C)[C@H](NC(=O)[C@H](CCCNC(=N)N)NC(=O)[C@H](CC(=O)O)NC(=O)[C@@H](NC(=O)[C@H](CCCNC(=N)N)NC(=O)Cc1ccc(NCCc2ccc3ccccc3c2)cc1)[C@@H](C)CC)C(N)=O [AP796] (X4-RIDRI-NH2)
Ki(app): 27.3 nM

CC[C@H](C)[C@@H]1NC(=O)[C@H](CCCNC(=N)N)NC(=O)[C@H](CC(=O)O)NC(=O)[C@H]([C@@H](C)CC)NC(=O)[C@H](CCCNC(=N)N)NC(=O)CNC(=O)[C@@H](NC(=O)[C@H](CO)NC(=O)[C@H](CO)NC(=O)[C@@H](N)CCCNC(=N)N)CSSC[C@@H](C(=O)N[C@@H](CC(N)=O)C(=O)N[C@@H](CO)C(=O)N[C@@H](Cc2ccccc2)C(=O)N[C@@H](CCCNC(=N)N)C(=O)N[C@@H](Cc2ccc(O)cc2)C(=O)O)NC(=O)CNC(=O)[C@H](CC(C)C)NC(=O)CNC(=O)[C@H](CO)NC(=O)[C@H](CCC(N)=O)NC(=O)[C@H](C)NC(=O)CNC1=O [AP24, R--S--S--C--G--R--I--D--R--I--G--A--Q--S--G--L--G--C--N--S--F--R--Y] (H-RSSCGRIDRIGAQSGLGCNSFRY-OH; disulfide 4-18)
Ki(app): 25.2 nM

CC[C@H](C)[C@H](NC(=O)[C@H](CCCNC(=N)N)NC(=O)[C@H](CC(=O)O)NC(=O)[C@@H](NC(=O)[C@H](CCCNC(=N)N)NC(=O)CNC(=O)[C@@H](C)NC(=O)[C@H](Cc1ccccc1)NC(=O)[C@H](C)N)[C@@H](C)CC)C(=O)NCC(=O)N[C@@H](C)C(N)=O [AP133, A--F--A^ --G--R--I--D--R--I--G--A--NH2] (H-AF[dA]GRIDRIGA-NH2)
Ki(app): 2.93 nM

CC[C@H](C)[C@H](NC(=O)[C@H](CCCNC(=N)N)NC(=O)[C@H](CC(=O)O)NC(=O)[C@@H](NC(=O)[C@H](CCCNC(=N)N)NC(=O)CNC(=O)CNC(=O)Cc1ccc2ccccc2c1)[C@@H](C)CC)C(=O)NCC(=O)NC(C)(C)C(N)=O [AP525, (2-NA)--G--G--R--I--D--R--I--G--(Aib)--NH2] ({Acetyl(2-naphthyl)}-GGRIDRIG[Aib]-NH2)
Ki(app): 22.75 nM

CCC(C)CNC(=O)[C@H](CCCNC(=N)N)NC(=O)[C@H](CC(=O)O)NC(=O)[C@@H](NC(=O)[C@H](CCCNC(=N)N)NC(=O)CNC(=O)CNC(=O)Cc1ccc2ccccc2c1)[C@@H](C)CC (stereo partly shown) [AP511, (2-NA)GGRIDRNHCH2CH(CH3)CH3 CH3] ({Acetyl(2-naphthyl)}-GGRIDR-X3)
Ki(app): 84.7 nM

CCNC(=O)CNC(=O)[C@@H](NC(=O)[C@H](CCCNC(=N)N)NC(=O)[C@H](CC(=O)O)NC(=O)[C@@H](NC(=O)[C@H](CCCNC(=N)N)NC(=O)CNC(=O)CNC(=O)Cc1ccc2ccccc2c1)[C@@H](C)CC)[C@@H](C)CC [AP524, (2-NA)--G--G--R--I--D--R--I--G--NH-(ethyl)] ({Acetyl(2-naphthyl)}-GGRIDRIG-NHEt)
Ki(app): 2.76 nM

CCNC(=O)[C@@H](NC(=O)[C@H](CCCNC(=N)N)NC(=O)[C@H](CC(=O)O)NC(=O)[C@@H](NC(=O)[C@H](CCCNC(=N)N)NC(=O)CNC(=O)CNC(=O)Cc1ccc2ccccc2c1)[C@@H](C)CC)[C@@H](C)CC [AP328, (2-NA)--G--G--R--I--D--R--I--NH(ethyl)] ({Acetyl(2-naphthyl)}-GGRIDRI-NHEt)
Ki(app): 19.87 nM
